The supplement of paper PMC10627819

Legend:
S. pneumoniae D39V [1] = test: fitness (endpoint OD595 vs no drug) (fraction); higher = more growth
How it was run: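 In 384-well plates at 37 °C, cultures began at OD595 0.01 in 30 µl, with 55 µl used for S. pneumoniae. OD595 readings every 30 min for 14 h were corrected by the first reading. Fitness divides the stationary-phase transition optical density by the robust mean of no-drug control wells. The result is capped at 1.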

B. subtilis 168 = test: Bliss interaction score (quartile over a dose matrix) (fitness difference); higher = more antagonism (negative = synergy)
How it was run: (§1)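 Fitness is OD595 at stationary-phase entry relative to the plate's robust no-drug mean, capped at 1. Single-drug fitness was inferred from combinations. The Bliss score is observed minus product-expected fitness, summarised by quartiles over technical, biological and donor/recipient replicates.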

S. aureus DSM 20231 = test: as above
How it was run: as §1

S. aureus Newman = test: as above
How it was run: as §1

S. pneumoniae D39V [2] = test: as above
How it was run: as §1
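For Bliss interaction score (quartile over a dose matrix) in this document: first quartile when negative (synergy) and third quartile when positive (antagonism).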

C[C@@H]1O[C@@H]1P(=O)(O)O [Fosfomycin] + O=C1CN(/N=C/c2ccc([N+](=O)[O-])o2)C(=O)N1 [Nitrofurantoin]
fitness, S. pneumoniae D39V [1]
Conditions	partner 1.285 µg/mL	partner 2 µg/mL	partner 2.57 µg/mL	partner 4 µg/mL	partner 8 µg/mL
first compound 1.25 µg/mL	0.96	0.91	0.966	0.871	–
first compound 2.5 µg/mL	0.936	0.879	0.964	0.887	–
first compound 5 µg/mL	0.851	0.778	0.858	0.77	0.627

S. pneumoniae D39V [1], partner 5.14 µg/mL, one replicate
Conditions	fitness
first compound 1.25 µg/mL	0.923
first compound 2.5 µg/mL	0.898
first compound 5 µg/mL	0.866

Conditions	Bliss interaction score
B. subtilis 168	-0.0694
S. aureus DSM 20231	-0.0181
S. aureus Newman	0.0702
S. pneumoniae D39V [2]	0.122

C[C@H]1c2cccc(O)c2C(=O)C2=C(O)[C@]3(O)C(=O)C(C(N)=O)=C(O)[C@@H](N(C)C)[C@@H]3[C@@H](O)[C@@H]21 [Doxycycline] + Clc1ccc(COC(Cn2ccnc2)c2ccc(Cl)cc2Cl)c(Cl)c1 [Miconazole]
fitness, S. pneumoniae D39V [1], one replicate
Conditions	first compound 0.003875 µg/mL	first compound 0.00775 µg/mL	first compound 0.031 µg/mL	first compound 0.062 µg/mL
partner 1.25 µg/mL	0.936	0.934	0.852	0.731
partner 2.5 µg/mL	0.925	0.964	0.878	0.74
partner 5 µg/mL	0.954	0.96	0.854	0.689

fitness, S. pneumoniae D39V [1]
Conditions	partner 1.073 µg/mL	partner 1.25 µg/mL	partner 2.145 µg/mL	partner 2.5 µg/mL	partner 4.29 µg/mL	partner 5 µg/mL
first compound 0.0155 µg/mL	0.947	0.923	0.96	0.936	0.895	0.911
first compound 0.031 µg/mL	0.937	–	0.95	–	0.912	–
first compound 0.062 µg/mL	0.895	–	0.908	–	0.835	–

Conditions	Bliss interaction score
B. subtilis 168	0.0453
S. aureus DSM 20231	0.0575
S. aureus Newman	-0.0138
S. pneumoniae D39V [2]	0.0669

C[C@H]1c2cccc(O)c2C(=O)C2=C(O)[C@]3(O)C(=O)C(C(N)=O)=C(O)[C@@H](N(C)C)[C@@H]3[C@@H](O)[C@@H]21 [Doxycycline] + O=C1CN(/N=C/c2ccc([N+](=O)[O-])o2)C(=O)N1 [Nitrofurantoin]
fitness, S. pneumoniae D39V [1], one replicate
Conditions	first compound 0.003875 µg/mL	first compound 0.00775 µg/mL	first compound 0.0155 µg/mL	first compound 0.031 µg/mL	first compound 0.062 µg/mL
partner 2 µg/mL	≥ 1	0.943	–	0.77	0.68
partner 4 µg/mL	0.993	0.953	–	0.809	0.681
partner 5.14 µg/mL	–	–	0.875	0.894	0.828
partner 8 µg/mL	0.766	0.824	–	0.8	0.741

fitness, S. pneumoniae D39V [1]
Conditions	partner 1.285 µg/mL	partner 2 µg/mL	partner 2.57 µg/mL	partner 4 µg/mL	partner 8 µg/mL
first compound 0.0155 µg/mL	0.899	0.9	0.944	0.898	0.877
first compound 0.031 µg/mL	0.896	–	0.92	–	–
first compound 0.062 µg/mL	0.837	–	0.869	–	–

Conditions	Bliss interaction score
B. subtilis 168	0.0854
S. aureus DSM 20231	-0.0256
S. aureus Newman	-0.0329
S. pneumoniae D39V [2]	0.0703

CO/N=C(\C(=O)N[C@@H]1C(=O)N2C(C(=O)O)=C(COC(C)=O)CS[C@H]12)c1csc(N)n1 [Cefotaxime] + Clc1ccc(COC(Cn2ccnc2)c2ccc(Cl)cc2Cl)c(Cl)c1 [Miconazole]
fitness, S. pneumoniae D39V [1]
Conditions	partner 1.073 µg/mL	partner 1.25 µg/mL	partner 2.145 µg/mL	partner 2.5 µg/mL	partner 4.29 µg/mL	partner 5 µg/mL
first compound 0.0018 µg/mL	≥ 1	0.919	0.967	0.96	0.94	0.936
first compound 0.0035 µg/mL	≥ 1	0.866	0.907	0.9	0.866	0.911
first compound 0.007 µg/mL	0.797	0.749	–	0.789	0.613	0.796

Conditions	Bliss interaction score
B. subtilis 168	0.104
S. aureus DSM 20231	-0.0534
S. aureus Newman	0.0393
S. pneumoniae D39V [2]	-0.0628

Cc1ncc([N+](=O)[O-])n1CCO [Metronidazole] + CO[C@H]1/C=C/O[C@@]2(C)Oc3c(C)c(O)c4c(O)c(c(/C=N/N5CCN(C)CC5)c(O)c4c3C2=O)NC(=O)/C(C)=C\C=C\[C@H](C)[C@H](O)[C@@H](C)[C@@H](O)[C@@H](C)[C@H](OC(C)=O)[C@@H]1C [Rifampicin]
fitness, S. pneumoniae D39V [1]
Conditions	first compound 1.073 µg/mL	first compound 1.25 µg/mL	first compound 2.145 µg/mL	first compound 2.5 µg/mL	first compound 4.29 µg/mL	first compound 5 µg/mL
partner 0.05 µg/mL	0.881	0.81	0.907	0.83	0.84	0.839
partner 0.1 µg/mL	0.577	–	0.617	–	0.677	–
partner 0.2 µg/mL	0.302	–	0.35	–	–	–

fitness, S. pneumoniae D39V [1], one replicate
Conditions	first compound 1.25 µg/mL	first compound 2.5 µg/mL	first compound 5 µg/mL
partner 0.025 µg/mL	0.897	0.907	0.892
partner 0.2 µg/mL	0	0	0

Conditions	Bliss interaction score
B. subtilis 168	0.0335
S. aureus DSM 20231	-0.0591
S. aureus Newman	0.0408
S. pneumoniae D39V [2]	0.104

C[C@H]1c2cccc(O)c2C(=O)C2=C(O)[C@]3(O)C(=O)C(C(N)=O)=C(O)[C@@H](N(C)C)[C@@H]3[C@@H](O)[C@@H]21 [Doxycycline] + C[C@@H](O)[C@H]1C(=O)N2C(C(=O)O)=C(SCCNC=N)C[C@H]12 [Imipenem]
fitness, S. pneumoniae D39V [1], one replicate
Conditions	first compound 0.003875 µg/mL	first compound 0.00775 µg/mL	first compound 0.031 µg/mL	first compound 0.062 µg/mL
partner 0.005 µg/mL	≥ 1	0.998	0.87	0.739
partner 0.01 µg/mL	≥ 1	0.973	0.808	0.74
partner 0.02 µg/mL	≥ 1	0.993	0.834	0.706

fitness, S. pneumoniae D39V [1]
Conditions	partner 0.005 µg/mL	partner 0.0065 µg/mL	partner 0.01 µg/mL	partner 0.013 µg/mL	partner 0.02 µg/mL	partner 0.026 µg/mL
first compound 0.0155 µg/mL	0.989	0.886	0.931	0.845	0.928	0.746
first compound 0.031 µg/mL	–	0.825	–	0.826	–	0.789
first compound 0.062 µg/mL	–	0.753	–	0.78	–	0.759

Conditions	Bliss interaction score
B. subtilis 168	0.222
S. aureus DSM 20231	-0.0172
S. aureus Newman	0.0141
S. pneumoniae D39V [2]	-0.0283

CO/N=C(\C(=O)N[C@@H]1C(=O)N2C(C(=O)O)=C(COC(C)=O)CS[C@H]12)c1csc(N)n1 [Cefotaxime] + C[C@@H](O)[C@H]1C(=O)N2C(C(=O)O)=C(SCCNC=N)C[C@H]12 [Imipenem]
fitness, S. pneumoniae D39V [1]
Conditions	partner 0.005 µg/mL	partner 0.0065 µg/mL	partner 0.01 µg/mL	partner 0.013 µg/mL	partner 0.02 µg/mL	partner 0.026 µg/mL
first compound 0.0018 µg/mL	0.966	0.976	0.937	≥ 1	0.932	0.973
first compound 0.0035 µg/mL	0.942	0.99	0.941	≥ 1	0.947	0.942
first compound 0.007 µg/mL	0.934	0.634	0.882	0.708	0.87	0.548

Conditions	Bliss interaction score
B. subtilis 168	-0.116
S. aureus DSM 20231	-0.0289
S. aureus Newman	0.0648
S. pneumoniae D39V [2]	0.0762
